The conditions of data set [1]: at doses 10-fold greater than the dose required to produce a 50% reduction in one or more symptoms; cited from earlier work.
Data set [2] is described as follows: Contact angles by tilting plane method (sessile drop on tilted surface). The data set is classed as physicochemical. As to conditions: sessile drop of water or buffered aqueous medium (50 mM sodium phosphate, pH 6.8) on tilted surface of the substance. An excerpt:
The tilting plane method of measuring contact angles involves slowly tilting a surface or plane of a substance the contact angle of which is to be determined until a sessile drop on the plane begins to move in the downhill direction. At that time the angle between the plane and the downhill tangent of the drop at the plane is the advancing contact angle, and the angle between the plane and the uphill tangent of the drop at the plane is the receding contact angle. A procedure for determining the contact angles of a therapeutic component is as follows. A small batch of Compound III weighing approximately 30 g is micronized in a ball mill for three days using 5-mm stainless steel balls. The resulting particles have an average diameter of 8 μm. A 200-mg sample of the micronized Compound III is compressed into a wafer 12 mm in diameter and 2 mm thick using a Carver press. The wafer is then glued on to a plastic board. Separately, a 10 milliliter aqueous solution is prepared containing 50 mM sodium phosphate buffer at pH 6.8. A drop of a blue food dye is added to the solution to aid visualization. A 40 μL drop of the blue aqueous solution is placed on top of the Compound III wafer on a plastic board resting at a horizontal position. The plastic board and the wafer are then slowly tilted from their horizontal position in front of a continuous shooting camera. The process stops after the blue aqueous drop has run down the wafer. The images that show the shapes of the liquid drop just prior to it starting to run down the wafer are analyzed and the contact angles measured. Alternatively, both the advancing and receding contact angles can be measured using a KSV instrument (model CAM 200) with a tilt stage. The instrument is fully computer controlled, and it captures the video image and performs full analysis of the advancing and receding contact angles.

The nature of data set [3]: Solubility in water at 25° C. It counts as physicochemical. Particulars: for solubility in water: unit given as mg; for solubility: water.
Data set [4] in a line: Dissolution in aqueous solution buffered to pH 6.8 over time (FIG. 1, FIG. 2). It counts as physicochemical. Particulars: 100 mg sample with excipients in buffer pH 6.8, FIG. 1 curves. The protocol:
Samples A and B are in the form of particles having an average diameter of about 150 microns. Samples C and D are in the form of particles having an average diameter of about 10 microns.
An aqueous solution buffered with a buffer to a pH of 6.8 is provided. A quantity of a mixture containing conventional pharmaceutically acceptable excipients is provided. In addition, a quantity of sodium dodecyl sulfate is provided.
A mixture of Sample A (100 mg) and excipients is formed and is placed in 900 ml of the aqueous solution.
A mixture of Sample C (100 mg) and excipients is formed and is placed in another 900 ml of the aqueous solution. Test samples of each of the aqueous solutions are taken at various times after each of the mixtures containing Compound III (Samples A and C) is placed in the aqueous solution. Each of these test samples is analyzed for Compound III concentration. Using these test results over a period of 240 minutes, relationships between the percentage of Sample A and Sample C dissolved and time are developed. These tests are run a total of 3 times (n=3).
Each of Samples B and D is tested in a substantially similar way. However, when testing Samples B and […], 1% based on weight of the mixture of Sample and excipient mixture, of sodium dodecyl sulfate is included in the mixture. Each of these tests is run a total of 3 times. […]

As to `Cc1cccc([C@H](C)c2c[nH]cn2)c1C` [dexmeditomidine], the sedation result in data set [1] is “completely sedating”.
Regarding `Cc1cccc([C@@H](C)c2c[nH]c(=S)[nH]2)c1C` [Compound IV], in data set [2], the advancing contact angle result was “greater than 90 °” and the receding contact angle result is “greater than 45 °”. The solubility in water result in data set [3] was “less than 0.5 mg”.
Consider `O=C1c2ccccc2CCC1Cc1c[nH]c(=S)[nH]1` (centres unmarked) [Compound I], for which, in data set [2], the advancing contact angle entry is on record as “greater than 90 °” and the receding contact angle entry is “greater than 45 °”. This molecule registered a solubility in data set [3] of less than 500 µg/mL.
As for `S=c1[nH]cc(CC2CC=CC2)[nH]1` [Compound III], in data set [2], the advancing contact angle came out at 116 ° and the receding contact angle was found to be 73 °. Besides, in data set [4], the “rate of dissolution (comparison in words)” value is “relatively reduced rate of dissolution in water”. In addition, the solubility in data set [3] is less than 500 µg/mL.
On to `O=c1[nH]cc(CC2Cc3ccc(F)cc3C2)[nH]1` (centres unmarked) [Compound II], for which, in data set [2], the advancing contact angle entry is recorded as “greater than 90 °” and the receding contact angle entry was “greater than 45 °”. Moreover, the solubility in water entry in data set [3] is given as “less than 0.5 mg”.

These data come from patent publication US20090252802A1, “Compositions Including Relatively Water Insoluble/Unwettable Drugs And Methods For Using Same” (priority 2006, published 2009).
